{"source": "ChEMBL document CHEMBL5543142", "about": "“Discovery of YFJ-36: Design, Synthesis, and Antibacterial Activities of Catechol-Conjugated β-Lactams against Gram-Negative Bacteria” (J Med Chem, 2024)", "key": {"[1]": {"test": "AUC (0 to infinity) in ICR mouse at 20 mg/kg,iv administration measured upto 6 hrs by LC-MS/MS analysis", "type": "ADME, organism-based", "conditions": "in vivo"}, "[2]": {"test": "Clearance in ICR mouse at 20 mg/kg,iv administration measured upto 6 hrs by LC-MS/MS analysis", "type": "ADME, organism-based", "conditions": "in vivo"}, "[3]": {"test": "Half life in ICR mouse at 20 mg/kg,iv administration measured upto 6 hrs by LC-MS/MS analysis", "type": "ADME, organism-based", "conditions": "in vivo"}, "[4]": {"test": "MRT in ICR mouse at 20 mg/kg,iv administration measured upto 6 hrs by LC-MS/MS analysis", "type": "ADME, organism-based", "conditions": "in vivo"}, "[5]": {"test": "Volume of distribution at steady state in ICR mouse at 20 mg/kg,iv administration measured upto 6 hrs by LC-MS/MS analysis", "type": "ADME, organism-based", "conditions": "in vivo, read-out: Vdss"}, "Acinetobacter baumannii [6]": {"tested_on": "Acinetobacter baumannii", "test": "Antibacterial activity against multidrug-resistant Acinetobacter baumannii BM-2023-D2-010 infected in ICR mouse assessed as survival rate at 40 mg/kg,iv after 1 and 5 hour of post-infection measured after 7 days relative to control", "type": "functional", "conditions": "time 7 day"}, "Acinetobacter baumannii [7]": {"tested_on": "Acinetobacter baumannii", "test": "Antibacterial activity against multidrug-resistant Acinetobacter baumannii BM-2023-D2-010 infected in ICR mouse assessed as survival rate at 28 mg/kg,iv after 1 and 5 hour of post-infection measured after 7 days relative to control", "type": "functional", "conditions": "time 7 day"}, "Acinetobacter baumannii [8]": {"tested_on": "Acinetobacter baumannii", "test": "Antibacterial activity against multidrug-resistant Acinetobacter baumannii BM-2023-D2-010 infected in ICR mouse assessed as survival rate at 19.6 mg/kg,iv after 1 and 5 hour of post-infection measured after 7 days relative to control", "type": "functional", "conditions": "time 7 day"}, "Acinetobacter baumannii [9]": {"tested_on": "Acinetobacter baumannii", "test": "Antibacterial activity against multidrug-resistant Acinetobacter baumannii BM-2023-D2-010 infected in ICR mouse assessed as survival rate at 13.7 mg/kg,iv after 1 and 5 hour of post-infection measured after 7 days relative to control", "type": "functional", "conditions": "time 7 day"}, "Acinetobacter baumannii [10]": {"tested_on": "Acinetobacter baumannii", "test": "Antibacterial activity against multidrug-resistant Acinetobacter baumannii BM-2023-D2-010 infected in ICR mouse assessed as survival rate at 9.6 mg/kg,iv after 1 and 5 hour of post-infection measured after 7 days relative to control", "type": "functional", "conditions": "time 7 day"}, "Acinetobacter baumannii [11]": {"tested_on": "Acinetobacter baumannii", "test": "Antibacterial activity against multidrug-resistant Acinetobacter baumannii BM-2023-D2-010 infected in ICR mouse assessed as survival rate at 6.72 mg/kg,iv after 1 and 5 hour of post-infection measured after 7 days relative to control", "type": "functional", "conditions": "time 7 day"}, "Acinetobacter baumannii [12]": {"tested_on": "Acinetobacter baumannii", "test": "Antibacterial activity against multidrug-resistant Acinetobacter baumannii BM-2023-D2-010 infected in ICR mouse assessed as survival rate at 4.71 mg/kg,iv after 1 and 5 hour of post-infection measured after 7 days relative to control", "type": "functional", "conditions": "time 7 day"}, "Acinetobacter baumannii [13]": {"tested_on": "Acinetobacter baumannii", "test": "Antibacterial activity against multidrug-resistant Acinetobacter baumannii BM-2023-D2-010 infected in ICR mouse assessed as survival rate at 3.3 mg/kg,iv after 1 and 5 hour of post-infection measured after 7 days relative to control", "type": "functional", "conditions": "time 7 day"}, "[14]": {"test": "AUC (0 to infinity) in ICR mouse at 20 mg/kg,iv administration measured upto 4 hrs by LC-MS/MS analysis", "type": "ADME, organism-based", "conditions": "in vivo"}, "[15]": {"test": "Clearance in ICR mouse at 20 mg/kg,iv administration measured upto 4 hrs by LC-MS/MS analysis", "type": "ADME, organism-based", "conditions": "in vivo"}, "[16]": {"test": "Half life in ICR mouse at 20 mg/kg,iv administration measured upto 4 hrs by LC-MS/MS analysis", "type": "ADME, organism-based", "conditions": "in vivo"}, "[17]": {"test": "MRT in ICR mouse at 20 mg/kg,iv administration measured upto 4 hrs by LC-MS/MS analysis", "type": "ADME, organism-based", "conditions": "in vivo"}, "[18]": {"test": "Volume of distribution at steady state in ICR mouse at 20 mg/kg,iv administration measured upto 4 hrs by LC-MS/MS analysis", "type": "ADME, organism-based", "conditions": "in vivo, read-out: Vdss"}, "[19]": {"test": "AUC (0 to infinity) in Sprague-Dawley rat at 5 mg/kg,iv administration measured upto 4 hrs by LC-MS/MS analysis", "type": "ADME, organism-based", "conditions": "in vivo"}, "[20]": {"test": "Clearance in Sprague-Dawley rat at 5 mg/kg,iv administration measured upto 4 hrs by LC-MS/MS analysis", "type": "ADME, organism-based", "conditions": "in vivo"}, "[21]": {"test": "Half life in Sprague-Dawley rat at 5 mg/kg,iv administration measured upto 4 hrs by LC-MS/MS analysis", "type": "ADME, organism-based", "conditions": "in vivo"}, "[22]": {"test": "MRT in Sprague-Dawley rat at 5 mg/kg,iv administration measured upto 4 hrs by LC-MS/MS analysis", "type": "ADME, organism-based", "conditions": "in vivo"}, "[23]": {"test": "Volume of distribution at steady state in Sprague-Dawley rat at 5 mg/kg,iv administration measured upto 4 hrs by LC-MS/MS analysis", "type": "ADME, organism-based", "conditions": "in vivo, read-out: Vdss"}, "hERG (KCNH2)": {"target": "hERG (KCNH2) (Homo sapiens, UniProt Q12809)", "sequence (Q12809 whole entry)": "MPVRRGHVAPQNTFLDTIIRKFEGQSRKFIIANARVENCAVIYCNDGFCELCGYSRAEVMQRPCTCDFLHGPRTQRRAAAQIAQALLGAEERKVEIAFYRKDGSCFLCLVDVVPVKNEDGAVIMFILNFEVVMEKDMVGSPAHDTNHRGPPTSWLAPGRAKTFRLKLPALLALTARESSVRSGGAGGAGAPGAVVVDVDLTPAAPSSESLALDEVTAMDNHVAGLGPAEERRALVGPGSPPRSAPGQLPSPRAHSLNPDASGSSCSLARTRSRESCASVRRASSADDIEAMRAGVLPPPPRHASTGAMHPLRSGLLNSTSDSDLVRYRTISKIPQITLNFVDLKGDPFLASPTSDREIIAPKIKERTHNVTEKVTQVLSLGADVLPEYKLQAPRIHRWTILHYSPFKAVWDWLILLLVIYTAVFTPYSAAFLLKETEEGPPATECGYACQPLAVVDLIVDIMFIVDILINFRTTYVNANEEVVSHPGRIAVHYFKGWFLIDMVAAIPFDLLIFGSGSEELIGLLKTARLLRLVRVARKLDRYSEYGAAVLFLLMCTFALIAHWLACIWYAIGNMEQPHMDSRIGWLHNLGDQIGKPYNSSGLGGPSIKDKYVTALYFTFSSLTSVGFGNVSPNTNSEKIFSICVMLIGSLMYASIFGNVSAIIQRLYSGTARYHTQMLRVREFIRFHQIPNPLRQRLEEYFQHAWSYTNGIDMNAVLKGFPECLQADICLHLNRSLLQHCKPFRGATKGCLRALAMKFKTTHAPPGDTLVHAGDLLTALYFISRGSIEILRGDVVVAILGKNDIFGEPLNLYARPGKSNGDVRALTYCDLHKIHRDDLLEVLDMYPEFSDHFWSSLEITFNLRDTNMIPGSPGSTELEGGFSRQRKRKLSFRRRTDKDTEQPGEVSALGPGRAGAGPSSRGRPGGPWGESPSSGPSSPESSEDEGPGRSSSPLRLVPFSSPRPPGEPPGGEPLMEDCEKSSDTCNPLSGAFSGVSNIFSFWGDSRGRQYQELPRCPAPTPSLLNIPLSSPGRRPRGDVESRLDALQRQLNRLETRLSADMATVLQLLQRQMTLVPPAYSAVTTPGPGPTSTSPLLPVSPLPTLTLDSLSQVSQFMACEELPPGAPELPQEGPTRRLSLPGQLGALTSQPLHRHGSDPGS", "test": "Inhibition of hERG at 3 uM by whole cell Qpatch assay relative to control", "type": "toxicity"}}, "data": [{"smiles": "CC(C)(O/N=C(\\C(=O)N[C@@H]1C(=O)N2C(C(=O)[O-])=C(C[N+]3(CCNC(=O)c4ccc(O)c(O)c4Cl)CCCC3)CS[C@H]12)c1csc(N)n1)C(=O)[O-].[Na+]", "values": [{"measurement": "AUC(0-inf)", "setting": "[1]", "result": 11600, "unit": "ng·h/mL"}, {"measurement": "clearance", "setting": "[2]", "result": 29.2, "unit": "mL/min/kg"}, {"measurement": "half-life", "setting": "[3]", "result": 16.2, "unit": "min"}, {"measurement": "MRT", "setting": "[4]", "result": 16.8, "unit": "min"}, {"measurement": "Vd", "setting": "[5]", "result": 0.488, "unit": "L/kg"}, {"measurement": "Activity", "setting": "Acinetobacter baumannii [6]", "result": 100, "unit": "%"}, {"measurement": "Activity", "setting": "Acinetobacter baumannii [7]", "result": 100, "unit": "%"}, {"measurement": "Activity", "setting": "Acinetobacter baumannii [8]", "result": 100, "unit": "%"}, {"measurement": "Activity", "setting": "Acinetobacter baumannii [9]", "result": 100, "unit": "%"}, {"measurement": "Activity", "setting": "Acinetobacter baumannii [10]", "result": 70, "unit": "%"}, {"measurement": "Activity", "setting": "Acinetobacter baumannii [11]", "result": 50, "unit": "%"}, {"measurement": "Activity", "setting": "Acinetobacter baumannii [12]", "result": 20, "unit": "%"}, {"measurement": "Activity", "setting": "Acinetobacter baumannii [13]", "result": 0, "unit": "%"}]}, {"smiles": "Nc1nc(/C(=N/O[C@@H](C(=O)[O-])C2CCC(F)(F)CC2)C(=O)N[C@@H]2C(=O)N3C(C(=O)O)=C(CSCCNC(=O)c4ccc(O)c(O)c4Cl)CS[C@H]23)cs1.[Na+]", "values": [{"measurement": "AUC(0-inf)", "setting": "[14]", "result": 8910, "unit": "ng·h/mL"}, {"measurement": "clearance", "setting": "[15]", "result": 49.8, "unit": "mL/min/kg"}, {"measurement": "half-life", "setting": "[16]", "result": 29.4, "unit": "min"}, {"measurement": "MRT", "setting": "[17]", "result": 9.6, "unit": "min"}, {"measurement": "Vd", "setting": "[18]", "result": 0.488, "unit": "L/kg"}, {"measurement": "AUC(0-inf)", "setting": "[19]", "result": 2260, "unit": "ng·h/mL"}, {"measurement": "clearance", "setting": "[20]", "result": 38.7, "unit": "mL/min/kg"}, {"measurement": "half-life", "setting": "[21]", "result": 13.8, "unit": "min"}, {"measurement": "MRT", "setting": "[22]", "result": 9.6, "unit": "min"}, {"measurement": "Vd", "setting": "[23]", "result": 0.37, "unit": "L/kg"}, {"measurement": "Activity", "setting": "Acinetobacter baumannii [6]", "result": 100, "unit": "%"}, {"measurement": "Activity", "setting": "Acinetobacter baumannii [7]", "result": 100, "unit": "%"}, {"measurement": "Activity", "setting": "Acinetobacter baumannii [8]", "result": 100, "unit": "%"}, {"measurement": "Activity", "setting": "Acinetobacter baumannii [9]", "result": 100, "unit": "%"}, {"measurement": "Activity", "setting": "Acinetobacter baumannii [10]", "result": 70, "unit": "%"}, {"measurement": "Activity", "setting": "Acinetobacter baumannii [11]", "result": 30, "unit": "%"}, {"measurement": "Activity", "setting": "Acinetobacter baumannii [12]", "result": 20, "unit": "%"}]}, {"smiles": "COc1cc(N)c(Cl)cc1C(=O)N[C@H]1CCN(CCCOc2ccc(F)cc2)C[C@H]1OC", "note": "[REL-CISAPRIDE]", "values": [{"measurement": "inhibition at 3 µM", "setting": "hERG (KCNH2)", "result": 97.8, "unit": "%"}]}]}
